The source of these data is patent US7067653B2, “Porphyrin Based neuton capture agents for cancer therapy” (The Regents of the University of California, priority 2000, dated 2006).

Series [1] relates to tumor. The conditions noted are these: drugs currently in BNCT clinical trials; cited from earlier work.
The subject of series [2] is U-373 MG cells. The series can be described thus: Dark toxicity assay in human glioblastoma U-373 MG cells. Format: cell-based. The note with it: exposure for 24 hours. As to the method: (§1) In vitro studies using rat 9L gliosarcoma cells, mouse B16 melanoma cells and human U-373MG glioblastoma cells have been performed.
(§2) Human glioblastoma U373 MG and mouse melanoma B16 cells were obtained from ATCC. The rat gliosarcoma line was kindly provided by the UCSF Brain Tumor Research Group. All cells were maintained in log phase monolayer cultures with RPMI 1640 supplemented with 10% fetal bovine and 2 mM glutamine.
(§3) Cells were seeded in 96-well culture plates, allowed to settle and attach for 24–48 hours, and then triplicate wells were exposed to two fold serial dilutions of test compounds at concentrations up to 250 μM. Compounds 4, 6, 10, and the Zn(II) complex of 10 in crystalline form were carefully weighed and dissolved in 100% DMSO to prepare stock solutions; subsequent dilutions were done directly into the culture medium just prior to administration to cells. After short term (2 hours) or long term (24–48 hours) exposure, cells were washed and wells refilled with fresh culture medium. For dark toxicity trials cells were allowed to proliferate for an additional 48–72 hours. For phototoxicity trials, washed cells were irradiated for 10 minutes with broad spectrum (600–700 nm) red light and then returned to an incubator for 48–72 hours.

Series [3] relates to 9L cells. The series can be described thus: Dark toxicity assay in rat 9L gliosarcoma cells. Format: cell-based. The note with it: exposure for 24 hours. As to the method:
as §1, §2, §3

Series [4] relates to Rat 9L tumor cells. Description: Intracellular localization by confocal fluorescence microscopy, 9L cells. It is filed as cell-based. The note with it: 2 μM, 6 or 24 hours. As to the method: (§4) Confocal fluorescence microscopy was used to examine the intracellular localization of nido-carboranylporphyrin 4 in live cells. Rat 9L tumor cells and human normal keratinocyte line HaCaT were used in these studies. HaCaT cells were included in these particular experiments because they adhere and spread nicely on glass cover slips, thus facilitating the imaging process. Cells exposed to 2 μM concentration of porphyrin 4 for either 6 or 24 hours were examined at a magnification of 200× for intracellular fluorescence using excitation/emission wavelengths optimized for this type of compound. […] In both cases, 100% of the cells were labeled and the cells exposed to drug for 24 hours were slightly brighter than those exposed for 6 hours. […] No fluorescent signal was detectable in the plasma membranes of isolated individual cells nor in the intercellular junctions of confluent cells.

Series [5] deals with human normal keratinocyte line HaCaT. The series can be described thus: Intracellular localization by confocal fluorescence microscopy, HaCaT cells. It is filed as cell-based. The conditions noted are these: 2 μM, 6 or 24 hours. As to the method:
as §4

The test system of series [6] is 9L, U-373 MG and B16 cells. Description: Phototoxicity assay, broad spectrum (600–700 nm) red light. Format: cell-based. The note with it: irradiation with broad spectrum light 10 minutes. As to the method: as §2, §3
As observed for the dark toxicity experiments, the corresponding Zn(II) complex […] was about 20-fold less phototoxic. […] As with dark toxicity, B16 cells were more resistant that the other two cell types.

For the molecule `N[C@@H](Cc1ccc(B(O)O)cc1)C(=O)O` [BPA, L-4-dihydroxy-borylphenylalanine], the “tumor selectivity compared with the carboranylporphyrins (tumor to normal brain ratio)” value in series [1] is reported as “lower selectivities”.

On to “disodium mercapto-closo-dodecaborate [BSH]”, for which the “tumor selectivity compared with the carboranylporphyrins (tumor to normal brain ratio)” value in series [1] was “lower selectivities”.

As usually defined, the IC50 is the point on the concentration scale where inhibition reaches its midpoint. Take “meso-tetra[3-(1-methyl-nido-carboranyl)methylphenyl]porphyrin tetrapotassium salt [Compound 10]”: the IC50 in series [2] and in series [3] was around 150 µM in each case.

On to “meso-tetra[4-(1-methyl-nido-carboranyl)methylphenyl]porphyrin tetrapotassium salt [Compound 4]”, for which the cells labeled in series [4] (9L cells) and in series [5] (HaCaT cells) was 100% throughout. In addition, the “intracellular localization (fluorescence)” value in series [4] (live 9L cells) and in series [5] (live HaCaT cells) was “predominantly perinuclear” in each case. The IC50 in series [2] is around 150 µM; in series [3] it was around 150 µM; in series [6] (2 hours exposure), 50 µM; in series [6] (24 hours exposure), 1.5 µM.
